# Measurements reported in article PMC12980401 (Science translational medicine, 2025).
# What was measured:
# [1] = system: rats; assay: Kaolin intake; details: fourth ICV 20 μg
# [2] = Half-life in rat serum; format: in vitro ADME
# [3] = system: chow-fed rats; assay: Counterregulatory response to hindbrain glucoprivation; format: in vivo, rat
# [4] = system: chow-fed rats; assay: Telemetry of core body temperature, physical activity and heart rate; details: lateral ventricle, high dose ODN (100 μg), TDN 20 and 100 μg
# [5] = system: musk shrew; assay: Food intake, body weight and emesis in musk shrews; format: in vivo, Suncus murinus; details: intraperitoneal 5 mg/kg; for Food intake in musk shrews: n = 9
# [6] = system: chow-fed rats; format: in vivo, rat
# [7] = system: HFD-fed rats; format: in vivo, rat
# [8] = system: chow-fed and HFD-fed rats; assay: Oral glucose tolerance test; format: in vivo, rat; details: for Glucose-stimulated plasma insulin: OGTT
# [9] = system: chow-fed and HFD-fed rats; assay: Insulin tolerance test; format: in vivo, rat; details: fourth ICV TDN 200 μg/2 μl
# [10] = system: lean and DIO mice; assay: Food intake and body weight after intraperitoneal injection in mice; format: in vivo, mouse
# [11] = system: DIO mice; assay: Hyperinsulinemic-euglycemic clamp in DIO mice; format: in vivo, mouse; details: single intraperitoneal 5 mg/kg before insulin infusion, vehicle 18%
# [12] = HFD-fed rats, lateral ventricle 200 μg/2 μl
# [13] = HFD-fed rats, fourth ICV TDN 200 μg/2 μl
molecule,measurement,setting,value
octadecaneuropeptide [ODN],Kaolin intake,[1],did not cause kaolin intake
same,Half-life in rat serum,"[2]; rat serum, average half-life (fig. S6, I and J)",12.4 min
same,Plasma glucagon after intraperitoneal insulin,"[3]; fourth ICV ODN 20 μg 15 min before ip insulin 0.75 U/kg, chow-fed rats",lowered plasma glucagon concentrations 30 min after intraperitoneal insulin
same,5-TG-induced hyperglycemia (1-hour blood glucose),"[3]; lean rats, fourth ICV ODN 20 μg pretreatment before 5-TG 210 μg",blunted 5-TG–induced hyperglycemia 1 hour after injection
same,5-TG-mediated hyperphagia,"[3]; lean rats, fourth ICV ODN 20 μg/2 μl pretreatment before 5-TG 210 μg",suppressed 5-TG–mediated hyperphagia at the 4-hour time point
same,Circulating free fatty acids after 5-TG,"[3]; plasma 30 min, fourth ICV ODN 20 μg before 5-TG",suppressed by hindbrain ODN pretreatment
same,Telemetry variables at individual hours,[4],decreased locomotor activity at hour 8
same,24-hour body weight change in musk shrews,[5],without affecting body weight at 24 hours
same,Emetic episodes in musk shrews,[5],caused no emetic episodes
same,Food intake in musk shrews,[5],suppressed food intake at 6 and 24 hours after injection
same,24-hour body weight change,"[6]; lean chow-fed rats, fourth ICV ODN 0.2, 2 and 20 μg",without affecting 24-hour body weight
same,Time to consume the first bout of food (latency),"[6]; lean chow-fed rats, fourth ICV, 2 μg",delayed
same,Size of the first meal,"[6]; lean chow-fed rats, fourth ICV, 20 μg",reduced
same,24-hour food intake and body weight,"[7]; HFD-maintained rats, fourth ICV, 20 μg",decreasing 24-hour food intake and body weight
same,Meal duration 6 to 12 hours postinjection,"[7]; HFD-maintained rats, fourth ICV, highest dose (20 μg)",decreased meal duration
same,Glucose tolerance (OGTT),"[8]; DIO rats, fourth ICV 200 μg",markedly improved
same,OGTT area under the curve,"[8]; lean rats, fourth ICV 200 μg (higher dose)",reduced the overall area under the curve
same,Glucose-stimulated plasma insulin,"[8]; lean rats, fourth ICV 200 μg",without enhancing glucose-stimulated plasma insulin
"O=C[C@H](O)[C@@H](O)[C@H](O)[C@H](S)CO [5-TG, 5-thio-D-glucose]",Food intake after glucoprivic agent,"[3]; lean rats, fourth ICV 210 μg at dark cycle onset, versus vehicle",increased food intake at 1 and 24 hours after injection
tridecaneuropeptide [TDN],Half-life in rat serum,"[2]; rat, serum",21.2 min
same,Insulin sensitivity during insulin tolerance test,[9],improved by fourth ICV TDN
same,24-hour body weight change in musk shrews,[5],without altering 24-hour weight change
same,Food intake in musk shrews,[5],suppressed 24-hour food intake
same,Body weight loss over 9 days,"[10]; DIO mice, daily intraperitoneal 5 mg/kg for 9 days",4.7%
same,Daily HFD intake,"[10]; DIO mice, daily intraperitoneal 5 mg/kg for 9 days, n = 6",suppressed HFD intake immediately on day 1
same,24-hour food intake and body weight,"[10]; lean mice, peripheral administration 5 mg/kg",no effect in lean mice
same,Suppression of endogenous glucose appearance (Ra) relative to baseline,[11],57%
same,24-hour body weight,[7]; [12],without an impact on body weight
same,24-hour food intake (HFD),[7]; [12],suppressed 24-hour food intake
same,OGTT AUC,[8]; [13],lowered the OGTT AUC
same,Glucose-stimulated plasma insulin,[8]; [13],without heightening glucose-stimulated plasma insulin concentrations
"recombinant DBI protein: recombinant diazepam binding inhibitor protein, parent of ODN (protein, UniProt P07108 2-87, looked up) Acyl-CoA-binding protein: SQAEFEKAAEEVRHLKTKPSDEEMLFIYGHYKQATVGDINTERPGMLDFTGKAKWDAWNELKGTSKEDAMKAYINKVEELKKKYGI",Chow intake,"[6]; chow-maintained rats, fourth ICV 2 μg/2 μl",suppressed chow intake at 6 and 12 hours postinjection
same,HFD intake,"[7]; HFD-maintained rats, fourth ICV 2 μg/2 μl",without affecting HFD intake
